Results on 3 compounds are retold here after patent US20190046486A1, “COMPOSITIONS AND METHODS FOR THE TREATMENT OF NEURONAL INJURY” (AXCELLA HEALTH INC., priority 2017, published 2019).

Experiment [1] concerns IL-6. Description: IL-6 levels in LPS-activated primary microglia cells treated with amino acid combinations. The conditions noted are these: for IL-6 Measurements, Mean: mouse microglia supernatant, 12 h after LPS 100 ng/ml, LIV 2.5 mM, NAC, ALCAR, CR 1 mM each, 6 replicates. Format: cell-based, mouse. On the procedure: (§1) Pups were decapitated, brains removed from the skulls, cortices dissected and collected in Calcium and Magnesium free Hanks Balanced Salt Solution (CMF-HBSS) on ice. Cortices were chopped with a sterile razor blade in chop solution (CMF-HBSS) and digested in 2 ml digestion solution (0.25% trypsin in CMF-HBSS) in a 15 ml sterile plastic tube for 20 minutes at 37° C. in a water bath. After removing as much as possible of the digestion solution (approximately 1 ml), the digestion was stopped by adding 3 ml stop solution (0.01% DNaseI and 0.5% trypsin inhibitor in FCS). Cortices were triturated 10-15 times with a fire-polished Pasteur pipette and centrifuged at 300 g for 5 minutes. The pellet was resuspended in 1 ml nutrition medium (10% FCS, 1% Penicillin-Streptomycin, 2 mM L-glutamine in DMEM) per pup. Cells were seeded into poly-D-lysine pre-coated T75 flasks containing 14 ml nutrition medium (one pup per flask). Medium was changed every 3 to 4 days and cells were cultured at 37° C., 95% humidity and 5% CO2 for approximately 14 days before harvesting the microglia.
(§2) After approximately 14 days of cultivation microglia cells were harvested by shaking the T75 flasks at 200 rpm at 37° C. for 2 h. After visual inspection confirming that the microglia cells had detached, the supernatants containing the microglia were transferred to 50 ml tubes (supernatant from 1 flask into 1 tube) and centrifuged at 300 g for 10 minutes. The pelleted microglia cells were resuspended in 2 ml of nutrition medium. Microglia cells were seeded into uncoated plates 1×10^5 cells/well (96 well plate) and incubated for 2 h at 37° C. Then the plates were rocked at 100 rpm for 5 minutes to detach the oligodendrocytes. The medium containing the oligodendrocytes was exchanged with fresh medium and microglia cells were incubated for 2 days at 37° C. before LPS treatment. 24 h before LPS stimulation single amino acids and combinations were administered. Next, 1 h before LPS stimulation, medium was changed to treatment medium (DMEM, 5% FBS, 2 mM L-glutamine) containing amino acids or combinations. Cells were maintained in treatment medium for the remaining culture period. One hour after changing cells to treatment medium, cells were stimulated with LPS (100 ng/ml) for 12 h in total. Cells treated with vehicle, LPS alone served as controls.
(§3) After 12 h of LPS stimulation, cell supernatants were collected and cytokines IL-6 and TNFα were measured. […]
(§4) Levels of TNFα an IL-6 were measured in supernatants of primary microglia cells collected 12 h after LPS stimulation. Cytokines were measured by an immunosorbent assay (U-PLEX Custom Mouse Cytokine, Mesoscale Discovery) according to the instructions of the manufacturer and evaluated in comparison to calibration curves provided in the kit. […]

In experiment [2] the test system is TNFα. The experiment in a line: TNFα levels in LPS-activated primary microglia cells treated with amino acid combinations. Type of experiment: cell-based, mouse. The conditions noted are these: for TNFα Measurements, Mean: mouse microglia supernatant, 12 h after LPS 100 ng/ml, LIV 2.5 mM, NAC, ALCAR, CR 1 mM each, 6 replicates. On the procedure: as §1, §2, §3, §4

The mark [3] stands for this setting: mouse microglia activated with LPS.

Structures are written as SMILES.

On to `CC(=O)O[C@H](CC(=O)[O-])C[N+](C)(C)C` [ALCAR, acetyl-1-carnitine], for which the “IL-6 Measurements, Mean” value in experiment [1] worked out at 59600 pg per ml. In addition, in experiment [2], the “TNFα Measurements, Mean” value is 21897 pg per ml.

As for `CN(CC(=O)O)C(=N)N` [CR, creatine], the “IL-6 Measurements, Mean” value in experiment [1] was 56492 pg per ml. Also, the “TNFα Measurements, Mean” value in experiment [2] is given as 17884 pg per ml.

On to `CC(=O)N[C@@H](CS)C(=O)O` [NAC, N-acetylcysteine], for which the “IL-6 protein level compared to vehicle treated with LPS stimulus” value in experiment [1] (setting [3]) is “reduced”. The “IL-6 Measurements, Mean” value in experiment [1] is 46749 pg per ml. Further, the “TNFα protein level compared to vehicle treated with LPS stimulus” value in experiment [2] (setting [3]) was “reduced”. For the same compound, the “TNFα Measurements, Mean” value in experiment [2] turned out to be 14814 pg per ml.
